Laboratory results published in PubChem BioAssay (NCI).
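Five compound concentrations were applied to cells in 96-well plates for 48 hours; endpoints were derived by simple linear interpolation of the resulting dose-response curve. Definition used: TGI = concentration required for complete inhibition of growth.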

Tested on: SR leukemia
Experiment: growth of human tumour cells (NCI), 48 h

`O=C(O)CC1OCC=C2CN3CCC45c6ccccc6NC4C1C2CC35` (stereo not drawn) and `N#Cc1ccc(NC(=NCC(=O)O)Nc2cccc3ccccc23)cc1` cannot be ordered by TGI: > 100 µM for the first, > 10 µM for the second.

`C=C(C)C1CC=C(C)C(=O)C1` (stereo not drawn) and `CC(=O)c1c(-c2ccc(Cl)cc2)c(-c2ccc(Cl)cc2)n[nH]c1=O` cannot be ordered by TGI: > 100 µM for the first, > 100 µM for the second.

`CC12CCCC(O)C1CCC1=CC3(CCC12)SCCS3` (stereo not drawn) and `CCCCNC(=S)Nc1nc(C(=O)NNC(=S)NCC)cs1` cannot be ordered by TGI: > 10 µM for the first, > 100 µM for the second.

Tested on: MALME-3M melanoma
Experiment: growth of human tumour cells (NCI), 48 h

Point of comparison: `CC(=O)C(C(=O)c1ccc(C)cc1)[C@@H]1OC(C)(C)O[C@@H]1[C@H]1COC(C)(C)O1` (stereo partly drawn), TGI 34 µM. Against it:
- COC(=O)C1=CC2C(=O)c3ccccc3C1(c1ccccc1)N2C1CCCCC1 (stereo not drawn) — 2.1-fold higher, 73.1 µM
- C=C(C)C1CC=C(C)C(=O)C1 (stereo not drawn) — higher, > 100 µM
- N#Cc1ccc(NC(=NCC(=O)O)Nc2cccc3ccccc23)cc1 — not separable, > 10 µM
- CC(=O)c1c(-c2ccc(Cl)cc2)c(-c2ccc(Cl)cc2)n[nH]c1=O — 2.3-fold higher, 79 µM
- CC12CCCC(O)C1CCC1=CC3(CCC12)SCCS3 (stereo not drawn) — not separable, > 10 µM
- CCCCNC(=S)Nc1nc(C(=O)NNC(=S)NCC)cs1 — higher, > 100 µM

Tested on: A549 NSCLC
Experiment: growth of human tumour cells (NCI), 48 h

`COC(=O)C1=CC2C(=O)c3ccccc3C1(c1ccccc1)N2C1CCCCC1` (stereo not drawn) and `O=C(O)CC1OCC=C2CN3CCC45c6ccccc6NC4C1C2CC35` (stereo not drawn) cannot be ordered by TGI: > 100 µM for the first, > 100 µM for the second.

`C=C(C)C1CC=C(C)C(=O)C1` (stereo not drawn) and `CC(=O)C(C(=O)c1ccc(C)cc1)[C@@H]1OC(C)(C)O[C@@H]1[C@H]1COC(C)(C)O1` (stereo partly drawn) cannot be ordered by TGI: > 100 µM for the first, > 91.6 µM for the second.

`N#Cc1ccc(NC(=NCC(=O)O)Nc2cccc3ccccc23)cc1` and `CC(=O)c1c(-c2ccc(Cl)cc2)c(-c2ccc(Cl)cc2)n[nH]c1=O` cannot be ordered by TGI: > 10 µM for the first, > 100 µM for the second.

`CC12CCCC(O)C1CCC1=CC3(CCC12)SCCS3` (stereo not drawn) and `CCCCNC(=S)Nc1nc(C(=O)NNC(=S)NCC)cs1` cannot be ordered by TGI: > 10 µM for the first, > 100 µM for the second.

Tested on: SF-268 CNS
Experiment: growth of human tumour cells (NCI), 48 h

`COC(=O)C1=CC2C(=O)c3ccccc3C1(c1ccccc1)N2C1CCCCC1` (stereo not drawn) and `O=C(O)CC1OCC=C2CN3CCC45c6ccccc6NC4C1C2CC35` (stereo not drawn) cannot be ordered by TGI: > 100 µM for the first, > 100 µM for the second.

`C=C(C)C1CC=C(C)C(=O)C1` (stereo not drawn) and `CC(=O)C(C(=O)c1ccc(C)cc1)[C@@H]1OC(C)(C)O[C@@H]1[C@H]1COC(C)(C)O1` (stereo partly drawn) cannot be ordered by TGI: > 100 µM for the first, > 83.4 µM for the second.

`N#Cc1ccc(NC(=NCC(=O)O)Nc2cccc3ccccc23)cc1` and `CC(=O)c1c(-c2ccc(Cl)cc2)c(-c2ccc(Cl)cc2)n[nH]c1=O` cannot be ordered by TGI: > 10 µM for the first, > 100 µM for the second.

`CC12CCCC(O)C1CCC1=CC3(CCC12)SCCS3` (stereo not drawn) and `CCCCNC(=S)Nc1nc(C(=O)NNC(=S)NCC)cs1` cannot be ordered by TGI: > 10 µM for the first, > 100 µM for the second.

Tested on: PC-3 prostate
Experiment: growth of human tumour cells (NCI), 48 h

`COC(=O)C1=CC2C(=O)c3ccccc3C1(c1ccccc1)N2C1CCCCC1` (stereo not drawn) and `O=C(O)CC1OCC=C2CN3CCC45c6ccccc6NC4C1C2CC35` (stereo not drawn) cannot be ordered by TGI: > 100 µM for the first, > 100 µM for the second.

`C=C(C)C1CC=C(C)C(=O)C1` (stereo not drawn) and `CC(=O)C(C(=O)c1ccc(C)cc1)[C@@H]1OC(C)(C)O[C@@H]1[C@H]1COC(C)(C)O1` (stereo partly drawn) cannot be ordered by TGI: > 100 µM for the first, > 31.9 µM for the second.

`N#Cc1ccc(NC(=NCC(=O)O)Nc2cccc3ccccc23)cc1` and `CC(=O)c1c(-c2ccc(Cl)cc2)c(-c2ccc(Cl)cc2)n[nH]c1=O` cannot be ordered by TGI: > 10 µM for the first, > 100 µM for the second.

`CC12CCCC(O)C1CCC1=CC3(CCC12)SCCS3` (stereo not drawn) and `CCCCNC(=S)Nc1nc(C(=O)NNC(=S)NCC)cs1` cannot be ordered by TGI: > 10 µM for the first, > 100 µM for the second.

Tested on: SNB-19 CNS
Experiment: growth of human tumour cells (NCI), 48 h

`COC(=O)C1=CC2C(=O)c3ccccc3C1(c1ccccc1)N2C1CCCCC1` (stereo not drawn) and `O=C(O)CC1OCC=C2CN3CCC45c6ccccc6NC4C1C2CC35` (stereo not drawn) cannot be ordered by TGI: > 100 µM for the first, > 100 µM for the second.

`C=C(C)C1CC=C(C)C(=O)C1` (stereo not drawn) and `CC(=O)C(C(=O)c1ccc(C)cc1)[C@@H]1OC(C)(C)O[C@@H]1[C@H]1COC(C)(C)O1` (stereo partly drawn) cannot be ordered by TGI: > 100 µM for the first, > 48.3 µM for the second.

`CC(=O)c1c(-c2ccc(Cl)cc2)c(-c2ccc(Cl)cc2)n[nH]c1=O` and `CC12CCCC(O)C1CCC1=CC3(CCC12)SCCS3` (stereo not drawn) cannot be ordered by TGI: > 100 µM for the first, > 10 µM for the second.

Tested on: NCI-H23 lung
Experiment: growth of human tumour cells (NCI), 48 h

Point of comparison: `CC(=O)C(C(=O)c1ccc(C)cc1)[C@@H]1OC(C)(C)O[C@@H]1[C@H]1COC(C)(C)O1` (stereo partly drawn), TGI 32.6 µM. Against it:
- COC(=O)C1=CC2C(=O)c3ccccc3C1(c1ccccc1)N2C1CCCCC1 (stereo not drawn) — higher, > 100 µM
- O=C(O)CC1OCC=C2CN3CCC45c6ccccc6NC4C1C2CC35 (stereo not drawn) — higher, > 100 µM
- C=C(C)C1CC=C(C)C(=O)C1 (stereo not drawn) — higher, > 100 µM
- N#Cc1ccc(NC(=NCC(=O)O)Nc2cccc3ccccc23)cc1 — not separable, > 10 µM
- CC(=O)c1c(-c2ccc(Cl)cc2)c(-c2ccc(Cl)cc2)n[nH]c1=O — higher, > 100 µM
- CC12CCCC(O)C1CCC1=CC3(CCC12)SCCS3 (stereo not drawn) — not separable, > 10 µM
- CCCCNC(=S)Nc1nc(C(=O)NNC(=S)NCC)cs1 — higher, > 100 µM

Tested on: KM12 colon
Experiment: growth of human tumour cells (NCI), 48 h

Point of comparison: `COC(=O)C1=CC2C(=O)c3ccccc3C1(c1ccccc1)N2C1CCCCC1` (stereo not drawn), TGI 32.1 µM. Against it:
- O=C(O)CC1OCC=C2CN3CCC45c6ccccc6NC4C1C2CC35 (stereo not drawn) — higher, > 100 µM
- C=C(C)C1CC=C(C)C(=O)C1 (stereo not drawn) — higher, > 100 µM
- N#Cc1ccc(NC(=NCC(=O)O)Nc2cccc3ccccc23)cc1 — not separable, > 10 µM
- CC(=O)c1c(-c2ccc(Cl)cc2)c(-c2ccc(Cl)cc2)n[nH]c1=O — higher, > 100 µM
- CC(=O)C(C(=O)c1ccc(C)cc1)[C@@H]1OC(C)(C)O[C@@H]1[C@H]1COC(C)(C)O1 (stereo partly drawn) — 2-fold higher, 65.6 µM
- CC12CCCC(O)C1CCC1=CC3(CCC12)SCCS3 (stereo not drawn) — not separable, > 10 µM
- CCCCNC(=S)Nc1nc(C(=O)NNC(=S)NCC)cs1 — higher, > 100 µM

Tested on: DU-145 prostate
Experiment: growth of human tumour cells (NCI), 48 h

Point of comparison: `CC(=O)C(C(=O)c1ccc(C)cc1)[C@@H]1OC(C)(C)O[C@@H]1[C@H]1COC(C)(C)O1` (stereo partly drawn), TGI 29.8 µM. Against it:
- COC(=O)C1=CC2C(=O)c3ccccc3C1(c1ccccc1)N2C1CCCCC1 (stereo not drawn) — higher, > 100 µM
- O=C(O)CC1OCC=C2CN3CCC45c6ccccc6NC4C1C2CC35 (stereo not drawn) — higher, > 100 µM
- C=C(C)C1CC=C(C)C(=O)C1 (stereo not drawn) — higher, > 100 µM
- N#Cc1ccc(NC(=NCC(=O)O)Nc2cccc3ccccc23)cc1 — not separable, > 10 µM
- CC(=O)c1c(-c2ccc(Cl)cc2)c(-c2ccc(Cl)cc2)n[nH]c1=O — higher, > 100 µM
- CC12CCCC(O)C1CCC1=CC3(CCC12)SCCS3 (stereo not drawn) — not separable, > 10 µM
- CCCCNC(=S)Nc1nc(C(=O)NNC(=S)NCC)cs1 — higher, > 100 µM

Tested on: HOP-92 NSCLC
Experiment: growth of human tumour cells (NCI), 48 h

`COC(=O)C1=CC2C(=O)c3ccccc3C1(c1ccccc1)N2C1CCCCC1` (stereo not drawn) and `O=C(O)CC1OCC=C2CN3CCC45c6ccccc6NC4C1C2CC35` (stereo not drawn) cannot be ordered by TGI: > 100 µM for the first, > 100 µM for the second.

`C=C(C)C1CC=C(C)C(=O)C1` (stereo not drawn) and `CC(=O)C(C(=O)c1ccc(C)cc1)[C@@H]1OC(C)(C)O[C@@H]1[C@H]1COC(C)(C)O1` (stereo partly drawn) cannot be ordered by TGI: > 100 µM for the first, > 100 µM for the second.

`CC(=O)c1c(-c2ccc(Cl)cc2)c(-c2ccc(Cl)cc2)n[nH]c1=O` and `CC12CCCC(O)C1CCC1=CC3(CCC12)SCCS3` (stereo not drawn) cannot be ordered by TGI: > 100 µM for the first, > 10 µM for the second.

Tested on: OVCAR-5 ovarian
Experiment: growth of human tumour cells (NCI), 48 h

`COC(=O)C1=CC2C(=O)c3ccccc3C1(c1ccccc1)N2C1CCCCC1` (stereo not drawn) and `O=C(O)CC1OCC=C2CN3CCC45c6ccccc6NC4C1C2CC35` (stereo not drawn) cannot be ordered by TGI: > 100 µM for the first, > 100 µM for the second.

`C=C(C)C1CC=C(C)C(=O)C1` (stereo not drawn) and `CC(=O)C(C(=O)c1ccc(C)cc1)[C@@H]1OC(C)(C)O[C@@H]1[C@H]1COC(C)(C)O1` (stereo partly drawn) cannot be ordered by TGI: > 100 µM for the first, > 100 µM for the second.

`CC(=O)c1c(-c2ccc(Cl)cc2)c(-c2ccc(Cl)cc2)n[nH]c1=O` and `CCCCNC(=S)Nc1nc(C(=O)NNC(=S)NCC)cs1` cannot be ordered by TGI: > 100 µM for the first, > 100 µM for the second.

Tested on: SF-295 CNS
Experiment: growth of human tumour cells (NCI), 48 h

Point of comparison: `COC(=O)C1=CC2C(=O)c3ccccc3C1(c1ccccc1)N2C1CCCCC1` (stereo not drawn), TGI 55.3 µM. Against it:
- O=C(O)CC1OCC=C2CN3CCC45c6ccccc6NC4C1C2CC35 (stereo not drawn) — higher, > 100 µM
- C=C(C)C1CC=C(C)C(=O)C1 (stereo not drawn) — higher, > 100 µM
- N#Cc1ccc(NC(=NCC(=O)O)Nc2cccc3ccccc23)cc1 — not separable, > 10 µM
- CC(=O)c1c(-c2ccc(Cl)cc2)c(-c2ccc(Cl)cc2)n[nH]c1=O — higher, > 100 µM
- CC(=O)C(C(=O)c1ccc(C)cc1)[C@@H]1OC(C)(C)O[C@@H]1[C@H]1COC(C)(C)O1 (stereo partly drawn) — higher, > 100 µM
- CC12CCCC(O)C1CCC1=CC3(CCC12)SCCS3 (stereo not drawn) — not separable, > 10 µM
- CCCCNC(=S)Nc1nc(C(=O)NNC(=S)NCC)cs1 — higher, > 100 µM

Tested on: 786-0 renal
Experiment: growth of human tumour cells (NCI), 48 h

Point of comparison: `CC(=O)C(C(=O)c1ccc(C)cc1)[C@@H]1OC(C)(C)O[C@@H]1[C@H]1COC(C)(C)O1` (stereo partly drawn), TGI 21.5 µM. Against it:
- COC(=O)C1=CC2C(=O)c3ccccc3C1(c1ccccc1)N2C1CCCCC1 (stereo not drawn) — higher, > 100 µM
- O=C(O)CC1OCC=C2CN3CCC45c6ccccc6NC4C1C2CC35 (stereo not drawn) — higher, > 100 µM
- C=C(C)C1CC=C(C)C(=O)C1 (stereo not drawn) — higher, > 100 µM
- N#Cc1ccc(NC(=NCC(=O)O)Nc2cccc3ccccc23)cc1 — not separable, > 10 µM
- CC(=O)c1c(-c2ccc(Cl)cc2)c(-c2ccc(Cl)cc2)n[nH]c1=O — higher, > 100 µM
- CC12CCCC(O)C1CCC1=CC3(CCC12)SCCS3 (stereo not drawn) — not separable, > 10 µM
- CCCCNC(=S)Nc1nc(C(=O)NNC(=S)NCC)cs1 — higher, > 100 µM

Tested on: UACC-257 melanoma
Experiment: growth of human tumour cells (NCI), 48 h

Point of comparison: `CC(=O)C(C(=O)c1ccc(C)cc1)[C@@H]1OC(C)(C)O[C@@H]1[C@H]1COC(C)(C)O1` (stereo partly drawn), TGI 28.6 µM. Against it:
- COC(=O)C1=CC2C(=O)c3ccccc3C1(c1ccccc1)N2C1CCCCC1 (stereo not drawn) — within 1.5-fold, 39 µM
- O=C(O)CC1OCC=C2CN3CCC45c6ccccc6NC4C1C2CC35 (stereo not drawn) — higher, > 100 µM
- C=C(C)C1CC=C(C)C(=O)C1 (stereo not drawn) — higher, > 100 µM
- N#Cc1ccc(NC(=NCC(=O)O)Nc2cccc3ccccc23)cc1 — not separable, > 10 µM
- CC(=O)c1c(-c2ccc(Cl)cc2)c(-c2ccc(Cl)cc2)n[nH]c1=O — higher, > 100 µM
- CC12CCCC(O)C1CCC1=CC3(CCC12)SCCS3 (stereo not drawn) — not separable, > 10 µM
- CCCCNC(=S)Nc1nc(C(=O)NNC(=S)NCC)cs1 — higher, > 100 µM
